The nature of series [1]: In vitro stability assay in liver microsome (MLM). In kind it is in vitro ADME, mouse. Conditions: liver microsome 0.5 mg/mL, NADPH+MgCl2, PBS pH 7.4, 1 h. On the procedure: (§1) Liver microsome incubation samples were prepared by mixing a PBS buffer (pH 7.4), a liver microsome solution (0.5 mg/mL), a test compound, and an NADPH+MgCl2 solution, and incubated at […] and 300 rpm for 1 h. Zero-hour samples were prepared by mixing a PBS buffer (pH 7.4), a liver microsome solution (0.5 mg/mL), and a test compound. An acetonitrile solution containing an internal standard was added to the samples, and supernatants were prepared by protein precipitation, diluted, and then assayed by LC/MS/MS.
For orientation: Microsomes from liver hold many membrane-bound enzymes, among them those of drug oxidation.

The subject of series [2] is GLP-1R humanized C57BL/6J mice. The series is described as follows: Evaluation of hypoglycemic effect in mice (intraperitoneal glucose challenge). In kind it is in vivo. Conditions: intragastric dose 1 mg/kg, glucose 2 g/kg ip 5 h after administration. An excerpt:
GLP-1R humanized C57BL/6J mice of 20-22 g were used in this study after 3 days of acclimatization. All the animals were deprived of food but not water until the end of study. Blood samples were collected from the tail tip of the mice.
The test animals were deprived of food but not water overnight before the study. The next day, blood was collected from all the animals for blood glucose testing, and the animals were randomized into a normal control group, a positive control group, and test compound groups by blood glucose and body weight, with 6 animals in each group. The groups were then given intragastric doses, and 5 h after the administration, an intraperitoneal injection of glucose solution (2 g/kg) was given. The blood glucose concentration was measured at 0.25 h, 0.5 h, 1 h, 2 h, and 3 h after the glucose injection. The blood glucose was recorded throughout the study, and the area under the blood glucose-time curve AUC0-180 min Glu was calculated.

The target of series [3] is GLP1R (Homo sapiens, UniProt P43220). The series can be described thus: In vitro cellular cAMP expression activity assay (CRE-luciferase reporter). In kind it is cell-based. The note with it: HEK293/CRE-Luc/GLP1R cells, 6 h incubation, luciferase luminescence; read-out: HEK293/CRE-Luc/GLP-1R EC50. The procedure: HEK293/CRE-Luc/GLP1R cells (manufacturer: GenScript Biotech Corporation) in a good growth state were taken, washed with PBS, and digested with pancreatin. The digestion was terminated with a complete medium. The cells were collected into a centrifuge tube, adjusted to a cell density of 4×10^5 cells/mL using a DMEM+2% FBS medium, seeded in a 96-well plate (100 μL/well), and incubated at 37° C. for 1 h. After 1 h, the compounds were added using a nanoliter pipettor such that the final concentrations of the compounds were 10 nM-0.0006 nM. The compounds were added in duplicate, and a control was set. After the cells were incubated in a cell incubator for another 6 h, a detection reagent Luciferase (manufacturer: Vazyme Biotech, 50 μL/well) was added. The plate was left to stand at room temperature for 3 min to fully lyse the cells, and the luminescence was detected on a PerkinElmer Envision microplate reader. A dose-response curve was fitted by four-parameter analysis, and the EC50 was calculated.
Sequence of GLP1R (P43220 24-463): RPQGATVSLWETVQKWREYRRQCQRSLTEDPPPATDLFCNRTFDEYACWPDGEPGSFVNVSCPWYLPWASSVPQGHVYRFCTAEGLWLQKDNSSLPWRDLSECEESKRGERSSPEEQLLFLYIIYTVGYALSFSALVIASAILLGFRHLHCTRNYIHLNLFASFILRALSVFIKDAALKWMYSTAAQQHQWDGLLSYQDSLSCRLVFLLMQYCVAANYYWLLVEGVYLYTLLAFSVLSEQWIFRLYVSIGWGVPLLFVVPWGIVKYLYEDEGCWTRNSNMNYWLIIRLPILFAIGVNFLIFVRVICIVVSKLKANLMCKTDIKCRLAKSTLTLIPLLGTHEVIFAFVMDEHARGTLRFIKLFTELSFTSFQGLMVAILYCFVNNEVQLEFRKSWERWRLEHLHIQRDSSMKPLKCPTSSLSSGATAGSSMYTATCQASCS
Background: Reporter assays use an easily measured gene product as a stand-in for the process of interest.

Series [4] can be described thus: In vivo pharmacokinetic evaluation in mice. The note with it: mouse, plasma, ICR mice; for bioavailability: ig 3 mg/kg vs iv 0.5 mg/kg, read-out: Absolute bioavailability F; for MRT last: read-out: MRT(0-24); for half-life: read-out: t½ (converted); for AUC(0-t): read-out: AUC(0-24). The procedure:
ICR mice of 18-22 g were randomized into 4 groups of 9 mice after 3-5 days of acclimatization. […]
The test animals (ICR mice) were fasted from 12 h pre-dose to 4 h post-dose, and given free access to water throughout the study.
Orbital blood samples of about 0.1 mL were collected at 15 min, 30 min, 1 h, 2 h, 3 h, 4 h, 6 h, 8 h, 10 h, and 24 h post-dose for the intragastric administration, and at 5 min, 10 min, 30 min, 1 h, 2 h, 4 h, 6 h, 8 h, 10 h, and 24 h post-dose for the intravenous administration. The blood sampling was performed at 3-4 time points for each mouse, 3 mice per time point. The collected whole blood was transferred into EDTA-K2-containing centrifuge tubes and stored at 4° C., and, within 1 h, centrifuged at 4° C. at 4000 rpm for 10 min to separate the plasma. All the plasma samples were immediately stored after collection at −20° C. for testing.
30 μL of the plasma sample to be tested and a standard curve sample were pipetted and added with 300 μL of an acetonitrile solution containing an internal standard (20 ng/mL of diazepam). The mixture was shaken to mix well for 5 min, and centrifuged at 13,000 rpm for 10 min. 80 μL of the supernatant was taken and diluted with 80 μL of ultrapure water. After a thorough mixing, 2 μL of the resulting sample was taken for liquid chromatography-mass spectrometry, and the chromatogram was recorded.

Series [5] can be described thus: In vitro stability assay in liver microsome (HLM). In kind it is in vitro ADME, human. The note with it: liver microsome 0.5 mg/mL, NADPH+MgCl2, PBS pH 7.4, 1 h. On the procedure:
as §1

Data on four compounds can be found in US20260098037A1, “COMPOUND CONTAINING MULTI-FUSED RING STRUCTURE” (Chia Tai Tianqing Pharmaceutical Group Co., Ltd., priority 2023, published 2026).

In general, bioavailability refers to the share of a dose that reaches the circulation, judged against a reference dose that is usually intravenous. The term AUC(0-inf) denotes the area under the concentration-time curve extrapolated to infinity. Lower therefore signals low exposure.

The structures appear in SMILES notation. Where two headings read alike, the source gives them in different places.

As for `Cc1cc(-n2nc3c(c2-n2ccn(-c4ccc5c(c4)N(C)C(=O)C54CC4)c2=O)[C@H](C)N(C(=O)c2cc4cc(C5CCOC(C)(C)C5)ccc4n2[C@@]2(c4noc(=O)[nH]4)C[C@@H]2C)CC3)cc(C)c1F` (single isomer, unassigned) [Compound 5], in series [1], the “MLM Remaining (T = 60 min)” value amounted to 94.32%. Also, the “AUC0-180 min Glu reduction (%)” value in series [2] is reported as 83%. Besides, the EC50 in series [3] is below 0.5 nM. The bioavailability in series [4] (po) was found to be 35.2%. For the same compound, in series [4] (po, ig, dose 3 mg/kg), the MRT last came out at 7.8 h, the half-life was 4.27 h, the AUC(0-inf) is 4780 ng·h/mL and the AUC(0-t) stood at 4640 ng·h/mL. In series [4] (iv, dose 0.5 mg/kg), the MRT last was 5.16 h, the half-life was 4.6 h, the AUC(0-inf) is 2260 ng·h/mL and the AUC(0-t) worked out at 2220 ng·h/mL. In addition, the “HLM Remaining (T = 60 min)” value in series [5] is 98.60%.

Consider `Cc1cc(-n2nc3c(c2-n2ccn(-c4ccc5c(c4F)N(C)C(=O)C54CC4)c2=O)[C@H](C)N(C(=O)c2cc4cc([C@H]5CCOC(C)(C)C5)ccc4n2[C@@]2(c4noc(=O)[nH]4)C[C@@H]2C)CC3)cc(C)c1F` [Compound 14], for which, in series [1], the “MLM Remaining (T = 60 min)” value is 90.40%. In series [2], the “AUC0-180 min Glu reduction (%)” value amounted to 79%. Moreover, the EC50 in series [3] was below 0.5 nM. Besides, in series [4] (po), the bioavailability is 37.8%. In addition, in series [4] (po, ig, dose 3 mg/kg), the MRT last worked out at 10.1 h, the half-life was 5.54 h, the AUC(0-inf) came to 4910 ng·h/mL and the AUC(0-t) came to 4560 ng·h/mL. Moreover, in series [4] (iv, dose 0.5 mg/kg), the MRT last turned out to be 6.78 h, the half-life is 5.77 h, the AUC(0-inf) was found to be 2170 ng·h/mL and the AUC(0-t) was 2060 ng·h/mL. The “HLM Remaining (T = 60 min)” value in series [5] was 89.53%.

With `C[C@H]1c2c(nn(-c3ccc(F)c(C4CC4)c3)c2-n2ccn(-c3ccc4c(c3)N(C)C(=O)C43CC3)c2=O)CCN1C(=O)c1cc2cc([C@H]3CCOC(C)(C)C3)ccc2n1[C@@]1(c2noc(=O)[nH]2)C[C@@H]1C` [Compound 18], in series [1], the “MLM Remaining (T = 60 min)” value was 91.41%. Further, the EC50 in series [3] was below 0.5 nM. In series [4] (po), the bioavailability came to 33.5%. In series [4] (po, ig, dose 3 mg/kg), the MRT last was found to be 8.36 h, the half-life was 4.29 h, the AUC(0-inf) came to 6030 ng·h/mL and the AUC(0-t) is 5840 ng·h/mL. In addition, in series [4] (iv, dose 0.5 mg/kg), the MRT last amounted to 5.48 h, the half-life is 4.55 h, the area under the curve AUC(0-inf) was determined as 3000 ng·h/mL and the AUC(0-t) was 2930 ng·h/mL. The “HLM Remaining (T = 60 min)” value in series [5] is listed as 89.14%.

Turning to `Cc1cc(-c2nn3c(c2-n2ccn(-c4ccc5c(c4)N(C)C(=O)C54CC4)c2=O)[C@H](C)N(C(=O)c2cc4cc([C@H]5CCOC(C)(C)C5)ccc4n2[C@@]2(c4noc(=O)[nH]4)C[C@@H]2C)CC3)cc(C)c1F` [Compound 27-D], in series [1], the “MLM Remaining (T = 60 min)” value is reported as 87.54%. In series [2], the “AUC0-180 min Glu reduction (%)” value is 75%. In addition, the EC50 in series [3] was below 0.5 nM. In series [5], the “HLM Remaining (T = 60 min)” value is 86.20%.
